“Also recorded” adds a separate entry of the source. Read-outs that look alike come from different tables or passages of the source.
What was measured:
[1] = cited from earlier work
[2] = Kinetic solubility of Form CS8, Form A and Form B in pH 1.0-6.8 media (HPLC); assay type: physicochemical; details: for Solubility relative to Form A of the prior art / Solubility relative to Form B of the prior art: 15 minutes
Method: The HPLC method parameters for solubility test in the present disclosure are as follows:
1. Column: Waters XBridge C18 150×4.6 mm, 5 μm
2. Mobile Phase: A: 0.1% TFA in H2O • B: 0.1% TFA in Acetonitrile
4. Injection Volume: 5 μL
5. Detection wavelength: 242 nm
6. Column Temperature: 40° C.
Different parts of the human body have different acidity (pH 1.0-8.0). The pH in stomach is 1.0-2.0, and the pH in the small intestine is 4.0-7.0. The stomach and small intestine are the key organs for drug dissolution and absorption, so measuring the dynamic solubility of a drug in a medium with pH 1.0-7.0 plays an important role in predicting the in vivo bioavailability.
About 20 mg of Form CS8, Form A and Form B of the prior art were suspended into 2.0 mL of 0.1 mol/L HCl aqueous solution (pH=1.0), 2.0 mL of acetic acid buffer solution (PH=4.5) and 2.0 mL of phosphate buffer solution (pH=6.8) to make suspensions. After equilibrated for 15 minutes, 30 minutes, and 1 hour, concentrations (μg/mL) of the saturated solutions were measured by HPLC.

[3] = Mechanical stability: manual grinding for 5 minutes (XRPD); assay type: physicochemical; details: ground manually for 5 minutes in a mortar
Method: Form CS8, Form A and Form B of the prior art were ground manually for 5 minutes in a mortar, XRPD patterns were collected before and after gridding. The XRPD pattern overlay of Form CS8, Form A and Form B of the prior art are depicted in FIG. 17, FIG. 18 and FIG. 19.

[4] = Particle size distribution (laser particle size analyzer); assay type: physicochemical; details: Isopar G containing 0.2% lecithin
Method: The particle size distribution data in the present disclosure were acquired by an […] laser particle size analyzer of Microtrac. Microtrac […] is equipped with an SDC (Sample Delivery Controller). The test is carried out in wet mode, and the dispersion medium is Isopar G. The laser particle size analyzer parameters are as follows: [table] Approximately 20 mg of Form CS8, Form A and Form B of the prior art were added into 10 mL of Isopar G (containing 0.2% lecithin). The mixture was mixed thoroughly and transferred into the SDC. The measurement was started when the sample amount indicator is in appropriate position. The average particle diameter calculated by volume, the diameter at which 10% mass is comprised of smaller particles (D10), the diameter at which 50% mass is comprised of smaller particles (D50) and the diameter at which 90% mass is comprised of smaller particles (D90) were obtained in particle size distribution test.

[5] = Adhesiveness: material sticking to the punch; assay type: physicochemical; details: 30 mg, φ8 mm round tooling, 10 KN, held 30 s
Method: Approximately 30 mg of Form CS8, Form A and Form B of the prior art were weighed and then added into the dies of φ8 mm round tooling, compressed at 10 KN and held for 30 s. The punch was weighed and amount of material sticking to the punch was calculated. The compression was repeated twice and the cumulative amount, maximum amount and average amount of material sticking to the punch during compression process were recorded.

[6] = Compressibility: tensile strength of compacts; assay type: physicochemical; details: 80 mg, φ6 mm round tooling, 10 KN; for Diameter / Hardness / Thickness: after 24 h at room temperature; for Tensile strength: T=2H/πDL
Method: 80 mg of Form CS8, Form A and Form B of the prior art were weighed and added into the dies of φ6 mm round tooling, compressed at 10 KN manually, then stored at room temperature for 24 h until complete elastic recovery. Hardness (H) was tested with an Intelligent Tablet Hardness Tester. Diameter (D) and thickness (L) were tested with a caliper. Tensile strength of the powder was calculated with the following formula: T=2H/πDL. Under a certain force, the greater the tensile strength, the better the compressibility.

[7] = Storage stability of Form CS8 under long-term and accelerated conditions (XRPD, HPLC); assay type: physicochemical; details: for Solid form after storage / Purity after storage / Chemical purity during storage: 6 months; for Purity after storage: initial purity 99.96%; for Time for which the form does not change / keeps stable on storage / Chemical purity during storage: drug substance
Method: The HPLC method parameters for purity test in the present disclosure are as follows: Approximately 30 mg of Form CS8 was stored under 25° C./60% RH and 40° C./75% RH in open or close dishes. Crystalline form and chemical impurity were checked by XRPD and HPLC, respectively. XRPD pattern overlay of Form CS8 of the present disclosure before and after being stored under 25° C./60% RH are depicted in FIG. 13. XRPD pattern overlay of Form CS8 of the present disclosure before and after being stored under 40° C./75% RH are depicted in FIG. 14.

[8] = Storage stability of Form CS8 under stress condition (XRPD); assay type: physicochemical; details: 60° C./75% RH
Method: Approximately 30 mg of Form CS8 was stored under 60° C./75% RH in open or close dishes. Crystalline form change of Form CS8 was tested by XRPD.

[9] = Mechanical stability: tableting under different pressures (XRPD); assay type: physicochemical
Source text: A certain amount of Form CS8 was compressed into pellets under different pressures with suitable tableting die. Crystalline form before and after tableting were checked by XRPD. The test results are shown in Table 14, XRPD pattern overlay is depicted in FIG. 16.

[10] = 0.1 mol/L HCl aqueous solution pH=1.0, equilibrated 15 min
[11] = 0.1 mol/L HCl aqueous solution pH=1.0, equilibrated 30 min
[12] = 0.1 mol/L HCl aqueous solution pH=1.0, equilibrated 1 h
[13] = acetic acid buffer solution pH=4.5, equilibrated 15 min
[14] = acetic acid buffer solution pH=4.5, equilibrated 30 min
[15] = acetic acid buffer solution pH=4.5, equilibrated 1 h
[16] = phosphate buffer solution pH=6.8, equilibrated 15 min
[17] = phosphate buffer solution pH=6.8, equilibrated 30 min
[18] = phosphate buffer solution pH=6.8, equilibrated 1 h
[19] = pH=4.5 acetic acid buffer solution
[20] = pH=6.8 phosphate buffer solution

CNC(=O)c1ccc(N2C(=S)N(c3cnc(C#N)c(C(F)(F)F)c3)C(=O)C23CCC3)cc1F [Form I, 4-[7-(6-cyano-5-trifluoromethylpyridin-3-yl)-8-oxo-6-thioxo-5,7-diazaspiro[3.4]oct-5-yl]-2-fluoro-N-methylbenzamide]
Crystal form transformation ([1]; high humidity conditions): transform to form B

CNC(=O)c1ccc(N2C(=S)N(c3cnc(C#N)c(C(F)(F)F)c3)C(=O)C23CCC3)cc1F [Form B of the prior art, 4-[7-(6-cyano-5-trifluoromethylpyridin-3-yl)-8-oxo-6-thioxo-5,7-diazaspiro[3.4]oct-5-yl]-2-fluoro-N-methylbenzamide]
Solubility (concentration of saturated solution) [2, 10]: 1.2 µg/mL | Solubility (concentration of saturated solution) [2, 11]: 1.5 µg/mL | Solubility (concentration of saturated solution) [2, 12]: 1.3 µg/mL | Solubility (concentration of saturated solution) [2, 13]: 1.1 µg/mL | Solubility (concentration of saturated solution) [2, 14]: 1.4 µg/mL | Solubility (concentration of saturated solution) [2, 15]: 1.3 µg/mL | Solubility (concentration of saturated solution) [2, 16]: 1.2 µg/mL | Solubility (concentration of saturated solution) [2, 17]: 1.0 µg/mL | Solubility (concentration of saturated solution) [2, 18]: 0.9 µg/mL | Crystalline form/crystallinity after grinding [3]: decreases after grinding; also recorded: Crystallinity decreased | D10 [4]: 12.1 μm | D50 [4]: 241.7 μm | D90 [4]: 1133 μm | MV (average particle diameter calculated by volume) [4]: 420.3 μm | Average amount of material sticking to the punch [5]: 0.15 mg | Maximum amount of material sticking to the punch [5]: 0.17 mg | Diameter [6]: 6.09 mm | Hardness [6]: 10.1 N | Thickness [6]: 2.13 mm | Tensile strength [6]: 0.50 MPa

CNC(=O)c1ccc(N2C(=S)N(c3cnc(C#N)c(C(F)(F)F)c3)C(=O)C23CCC3)cc1F [Form A of the prior art, 4-[7-(6-cyano-5-trifluoromethylpyridin-3-yl)-8-oxo-6-thioxo-5,7-diazaspiro[3.4]oct-5-yl]-2-fluoro-N-methylbenzamide]
Solubility (concentration of saturated solution) [2, 10]: 7.4 µg/mL | Solubility (concentration of saturated solution) [2, 11]: 6.2 µg/mL | Solubility (concentration of saturated solution) [2, 12]: 8.0 µg/mL | Solubility (concentration of saturated solution) [2, 13]: 5.9 µg/mL | Solubility (concentration of saturated solution) [2, 14]: 5.2 µg/mL | Solubility (concentration of saturated solution) [2, 15]: 5.5 µg/mL | Solubility (concentration of saturated solution) [2, 16]: 6.1 µg/mL | Solubility (concentration of saturated solution) [2, 17]: 8.4 µg/mL | Solubility (concentration of saturated solution) [2, 18]: 4.8 µg/mL | Crystalline form/crystallinity after grinding [3]: transformed into amorphous after grinding; also recorded: Almost change to amorphous | D10 [4]: 4.22 μm | D50 [4]: 14.81 μm | D90 [4]: 130.4 μm | MV (average particle diameter calculated by volume) [4]: 53.51 μm | Average amount of material sticking to the punch [5]: 0.13 mg | Maximum amount of material sticking to the punch [5]: 0.19 mg | Diameter [6]: 6.08 mm | Hardness [6]: 12.3 N | Thickness [6]: 2.10 mm | Tensile strength [6]: 0.64 MPa

CNC(=O)c1ccc(N2C(=S)N(c3cnc(C#N)c(C(F)(F)F)c3)C(=O)C23CCC3)cc1F [Form CS8, 4-[7-(6-cyano-5-trifluoromethylpyridin-3-yl)-8-oxo-6-thioxo-5,7-diazaspiro[3.4]oct-5-yl]-2-fluoro-N-methylbenzamide]
Solubility (concentration of saturated solution) [2, 10]: 23.6 µg/mL | Solubility (concentration of saturated solution) [2, 11]: 25.1 µg/mL | Solubility (concentration of saturated solution) [2, 12]: 18.7 µg/mL | Solubility (concentration of saturated solution) [2, 13]: 17.7 µg/mL | Solubility (concentration of saturated solution) [2, 14]: 10.6 µg/mL | Solubility (concentration of saturated solution) [2, 15]: 10.9 µg/mL | Solubility relative to Form A of the prior art ([2]; pH=1.0 HCl aqueous solution): 3.2 times | Solubility relative to Form B of the prior art ([2]; pH=1.0 HCl aqueous solution): 19.7 times | Solubility relative to Form A of the prior art [2, 19]: 3.0 times | Solubility relative to Form B of the prior art [2, 19]: 16.1 times | Solubility relative to Form A of the prior art [2, 20]: 3.7 times | Solubility relative to Form B of the prior art [2, 20]: 19.0 times | Solubility (concentration of saturated solution) [2, 16]: 22.8 µg/mL | Solubility (concentration of saturated solution) [2, 17]: 18.9 µg/mL | Solubility (concentration of saturated solution) [2, 18]: 20.6 µg/mL | Solid form after storage ([7]; 25° C./60% RH (closed)): From CS8 | Purity after storage ([7]; 25° C./60% RH (closed)): 99.96% | Solid form after storage ([7]; 25° C./60% RH (open)): From CS8 | Purity after storage ([7]; 25° C./60% RH (open)): 99.96% | Solid form after storage ([7]; 40° C./75% RH (closed)): From CS8 | Purity after storage ([7]; 40° C./75% RH (closed)): 99.95% | Solid form after storage ([7]; 40° C./75% RH (open)): From CS8 | Purity after storage ([7]; 40° C./75% RH (open)): 99.95% | Time for which the form does not change / keeps stable on storage ([7]; 25° C./60% RH): at least 6 months | Chemical purity during storage ([7]; 25° C./60% RH): above 99.9% | Time for which the form does not change / keeps stable on storage ([7]; 40° C./75% RH): at least 6 months | Chemical purity during storage ([7]; 40° C./75% RH): above 99.9% | Time for which the form does not change / keeps stable on storage [8]: at least 2 weeks | Solid form after storage ([8]; container open or close, 2 weeks): Form CS8 | Crystalline form after tableting ([9]; pressure 3 kN): Form CS8 | Crystalline form after tableting ([9]; pressure 7 kN): Form CS8 | Crystalline form after tableting ([9]; pressure 14 kN): Form CS8 | Crystalline form/crystallinity after grinding [3]: doesn't change after grinding | D10 [4]: 48.60 μm | D50 [4]: 100.8 μm | D90 [4]: 164.9 μm | MV (average particle diameter calculated by volume) [4]: 104.7 μm | Average amount of material sticking to the punch [5]: 0.08 mg | Maximum amount of material sticking to the punch [5]: 0.11 mg | Diameter [6]: 6.05 mm | Hardness [6]: 14.6 N | Thickness [6]: 2.19 mm | Tensile strength [6]: 0.70 MPa

CNC(=O)c1ccc(N2C(=S)N(c3cnc(C#N)c(C(F)(F)F)c3)C(=O)C23CCC3)cc1F [Form F, 4-[7-(6-cyano-5-trifluoromethylpyridin-3-yl)-8-oxo-6-thioxo-5,7-diazaspiro[3.4]oct-5-yl]-2-fluoro-N-methylbenzamide]
Crystal form transformation ([1]; ambient conditions): transform to form A

CNC(=O)c1ccc(N2C(=S)N(c3cnc(C#N)c(C(F)(F)F)c3)C(=O)C23CCC3)cc1F [Form H, 4-[7-(6-cyano-5-trifluoromethylpyridin-3-yl)-8-oxo-6-thioxo-5,7-diazaspiro[3.4]oct-5-yl]-2-fluoro-N-methylbenzamide]
Crystal form transformation ([1]; high temperature and high humidity conditions): easily transformed into form B

From patent US11066384B2, “Crystalline forms of ARN-509, preparation method and use thereof” (Crystal Pharmaceutical (Suzhou) Co., Ltd., priority 2018, dated 2021)
